For 17 compounds, IC50 results are on record in patent US9505730B2, “Mineralocorticoid receptor antagonists” (Merck Sharp & Dohme Corp., priority 2011, dated 2016).

In this assay the target is T1, full-length human Mineralocorticoid Receptor (MR) (Homo sapiens, UniProt P08235).
T1 construct: host or cells: PathHunter CHO-K1 cells
T1 sequence (P08235 1-984): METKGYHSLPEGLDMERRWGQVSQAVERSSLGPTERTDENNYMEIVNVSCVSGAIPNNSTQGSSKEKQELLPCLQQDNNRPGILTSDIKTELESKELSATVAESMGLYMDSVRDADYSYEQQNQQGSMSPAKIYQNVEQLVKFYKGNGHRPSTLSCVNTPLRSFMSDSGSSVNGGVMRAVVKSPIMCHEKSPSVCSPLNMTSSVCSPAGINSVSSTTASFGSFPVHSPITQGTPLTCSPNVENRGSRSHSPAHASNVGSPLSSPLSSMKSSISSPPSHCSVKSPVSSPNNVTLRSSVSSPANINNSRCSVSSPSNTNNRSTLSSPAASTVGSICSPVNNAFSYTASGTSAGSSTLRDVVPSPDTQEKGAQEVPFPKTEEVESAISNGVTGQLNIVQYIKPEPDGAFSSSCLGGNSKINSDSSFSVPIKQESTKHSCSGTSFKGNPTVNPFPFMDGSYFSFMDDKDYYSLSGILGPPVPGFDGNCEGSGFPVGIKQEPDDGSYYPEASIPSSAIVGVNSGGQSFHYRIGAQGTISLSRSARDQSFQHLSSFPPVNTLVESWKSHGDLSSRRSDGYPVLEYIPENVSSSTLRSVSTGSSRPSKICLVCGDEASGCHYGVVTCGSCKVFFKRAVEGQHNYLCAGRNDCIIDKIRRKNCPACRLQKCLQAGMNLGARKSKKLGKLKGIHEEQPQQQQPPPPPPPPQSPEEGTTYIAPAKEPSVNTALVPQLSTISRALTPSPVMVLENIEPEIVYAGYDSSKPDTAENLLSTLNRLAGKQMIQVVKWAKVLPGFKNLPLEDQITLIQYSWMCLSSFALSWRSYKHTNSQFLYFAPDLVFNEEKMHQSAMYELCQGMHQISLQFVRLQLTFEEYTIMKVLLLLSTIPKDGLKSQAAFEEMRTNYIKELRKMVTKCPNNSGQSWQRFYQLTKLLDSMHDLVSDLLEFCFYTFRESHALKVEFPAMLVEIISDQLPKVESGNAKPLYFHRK
Nature of the assay: human MR NH Pro assay (PathHunter Protein:Protein interaction assay, MR antagonism). Conditions: PathHunter CHO-K1 cells overexpressing human MR; aldosterone 0.3 nM; 6 hours at 37° C.; luminescence; read-out: IC50 rating. The assay is classed as cell-based. The procedure:
The activity of the compounds of the present invention regarding mineralocorticoid receptor antagonism was evaluated using the following assay.
Assessment of Mr Potency in Hmr Nh Pro Assay
The human MR NH Pro assay is a commercially available PathHunter™ Protein: Protein interaction assay (DiscoveRx; http://www.discoverx.com/nhrs/prod-nhrs.php) that measures the ability of compounds to antagonize full-length human Mineralocorticoid Receptor (MR) binding to a coactivator peptide. PathHunter™ CHO-K1 cells that overexpress human MR (Cat #93-0456C2, Lot No: 09B0913) were cultured in growth media (F12K w/Glutamine and phenol red (Gibco 11765-047) supplemented with 10% HI FBS (Gibco 16000); 0.25 mg/ml Hygromycin in PBS (Invitrogen 10687-010, 50 mg/ml); 100 I.U./mL and 100 μg/mL Pen/Strep (Gibco 15140-122); 0.6 mg/mL Geneticin).
Compounds were assessed for MR antagonist activity by incubating the cells with a titrating dose of compound in F12K w/Glutamine and phenol red culture media (Invitrogen 11765-047) supplemented with 1% Charcoal/Dextran Treated FBS (Hyclone #SH30068.01) and aldosterone (0.3 nM) for 6 hours at 37° C.
• F12K w/Glutamine and phenol red (Gibco 11765-047) • 10% HI FBS (Gibco 16000) • 0.25 mg/ml Hygromycin in PBS (Invitrogen 10687-010, 50 mg/ml) • 100 I.U./mL and 100 μg/mL Pen/Strep (Gibco 15140-122) • 0.6 mg/mL Geneticin (Gibco 10131, 50 mg/ml) 2. Assay media: • F12K w/Glutamine and phenol red (Invitrogen 11765-047) • 1% Charcoal/Dextran Treated FBS (Hyclone #SH30068.01) 3. 3× PathHunter Detection Reagents (Cat#93-0001) (need ˜6 ml/plate). […] Control Agonist: Aldosterone: Sigma cat #A9477 • Prepare stock solution—10 μM in DMSO kept at −20 C • for assay, dilute in assay media to 1.8 or 6 nM (6× of final concentration=about 0.3 nM to about 1.0 nM) 5. Cell line: PathHunter CHO-K1 MR cells Cat #93-0456C2, Lot No: 09B0913, from operation liquid nitrogen stock. 6. Control Antagonist: Spironolactone: Sigma #S-3378 and Eplerenone Sigma #107724-20-9 (10 mM stock concentration also prepared in DMSO and stored at −20° C.). Methods: Assay Set up and Calculations: • 1. Cells were grown in F12+FBS+Hygromycin+pen/strep+Genetin. • 2. Cells were collected with 0.05% trypsin and the cell suspension was spun and resuspended in a volume of F12+1.5% CD-FBS and counted. • 3. The cells were resuspended to 4×10^5 cells/mL. • 4. Cells were (25 μL/well) added to the wells of a 384 well plate. • 5. The plate was then incubated at 37° C. over night in a humidified incubator with 5% CO2. • 6. Test compounds were titrated starting at 4.4 mM, 10-point titration in 1:3 dilution. • 7. Aldosterone was diluted in assay media to 1.8 nM or 6 nM from 10 μM stock (final concentration to be about 0.3 nM to about 1.0 nM). Protocol for 384 well plate format: 6 hr treatment: • 1. Plated 10K exponentially growing cells/well (25 μL) resuspended in assay media to each well using the Multidrop (Thermo Electron). Use white wall, clear bottom assay plates (Costar #3570) and incubate overnight at 37° C., 5% CO2. • 2. 0.25 μL 120× test compound (final DMSO concentration should be <1%) was added to each well n=2, 10 point titrations starting at 36.7 μM final concentration. • 3. 5 μL 6× agonist (final aldosterone concentration should be about 0.3 nM to about 1.0 nM) was added to all wells using the PlateMate Plus.
(ThermoFisher) (except those wells in columns 23 and 24) • 4. 5 μL of assay media was added to all wells in column 23 and 24. • 5. Plates were incubated 6 hrs at 37° C., 5% CO2. • 6. 15 μL 3× DiscoveRx detection reagent was added to each well. • 7. Plates were incubated for 1 hour at room temperature (plates stored in the dark). • 8. Plates were read on Envision (PerkinElmer) luminesence plate reader and analyzed using ADA. LC/MS method: (LC2M_Low/Med_Positive mode). LC Conditions: 5-98% CH3CN/H2O+v 0.1% TFA over 1.25 min; Flow Rate=1.5 mL/min, UV wavelength 254 nm; Column: Waters XTerra® MS C18 3.5 μm 2.1×20 mm IS™

On to `C[C@H](c1ccc(F)cc1)N1C(=O)O[C@](Cc2ccccc2)(C(=O)Nc2ccccc2)C1=O` [Compound 19, (5R)-5-Benzyl-3-[(1R)-1-(4-fluorophenyl)ethyl]-2,4-dioxo-N-phenyl-1,3-oxazolidine-5-carboxamide], for which the IC50 fell in the range of 100 to 500 nM.

In the case of `C[C@H](C1CCCCC1)N1C(=O)O[C@](Cc2ccccc2)(C(=O)NCc2ccc(Cl)c(Cl)c2)C1=O` [Compound 17, (5R)-5-Benzyl-3-[(1R)-1-cyclohexylethyl]-N-(3,4-dichlorobenzyl)-2,4-dioxo-1,3-oxazolidine-5-carboxamide], the IC50 lay within 100 to 500 nM. For `COc1cc(CNC(=O)[C@@]2(Cc3ccccc3)OC(=O)N(C(C)C)C2=O)cc(OC)c1` [Compound 6, (5R)-5-Benzyl-N-(3,5-dimethoxybenzyl)-3-(1-methylethyl)-2,4-dioxo-1,3-oxazolidine-5-carboxamide], the IC50 was 100 to 500 nM. With `COc1cc(CNC(=O)C2(Cc3cccc(Cl)c3)OC(=O)N([C@H](C)c3ccccc3)C2=O)cc(OC)c1` (stereo partly drawn) [Compound 5, 5-(3-Chlorobenzyl)-N-(3,5-dimethoxybenzyl)-2,4-dioxo-3-[(1R)-1-phenylethyl]-1,3-oxazolidine-5-carboxamide] the figure was 500 to 4500 nM. Consider `COc1cc(CNC(=O)[C@@]2(Cc3ccccc3)OC(=O)N([C@H](C)c3ccc(Cl)cc3)C2=O)cc(OC)c1` [Compound 9, (5R)-5-Benzyl-3-[(1R)-1-(4-chlorophenyl)ethyl]-N-(3,5-dimethoxybenzyl)-2,4-dioxo-1,3-oxazolidine-5-carboxamide], for which the IC50 was less than 100 nM. With `C[C@H](c1ccc(F)cc1)N1C(=O)O[C@](Cc2ccccc2)(C(=O)Nc2cccnc2)C1=O` [Compound 20] the figure was 100 to 500 nM; with `C[C@H](c1ccccc1)N1C(=O)O[C@](Cc2ccccc2)(C(=O)N2Cc3ccccc3C2)C1=O` [Compound 22, (5R)-Benzyl-5-(1,3-dihydro-2H-isoindol-2-ylcarbonyl)-3-[(1R)-1-phenylethyl]-1,3-oxazolidine-2,4-dione], 100 to 500 nM; with `C[C@H](c1ccccc1)N1C(=O)O[C@](Cc2ccccc2)(C(=O)N[C@H]2C[C@H](c3ccccc3)C2)C1=O` [Compound 4, (5R)-5-Benzyl-2,4-dioxo-N-(trans-3-phenylcyclobutyl)-3-[(1R)-1-phenylethyl]-1,3-oxazolidine-5-carboxamide], 100 to 500 nM. The result for `C[C@H](c1ccc(F)cc1)N1C(=O)O[C@](Cc2ccccc2)(C(=O)Nc2ccc(Cl)cc2)C1=O` [Compound 14, (5R)-5-Benzyl-N-(4-chlorophenyl)-3-[(1R)-1-(4-fluorophenyl)ethyl]-2,4-dioxo-1,3-oxazolidine-5-carboxamide] reads 100 to 500 nM; that for `C[C@H](C1CCCCC1)N1C(=O)O[C@](Cc2ccc(F)cc2)(C(=O)Nc2ccc(Cl)cc2)C1=O` [Compound 16, (5R)-N-(4-Chlorophenyl)-3-[(1R)-1-cyclohexylethyl]-5-(4-fluorobenzyl)-2,4-dioxo-1,3-oxazolidine-5-carboxamide], 100 to 500 nM; that for `COc1cc(CNC(=O)[C@@]2(Cc3ccccc3)OC(=O)N([C@H](C)c3ccc(F)cc3)C2=O)cc(OC)c1` [Compound 8, (5R)-5-Benzyl-N-(3,5-dimethoxybenzyl)-3-[(1R)-1-(4-fluorophenyl)ethyl]-2,4-dioxo-1,3-oxazolidine-5-carboxamide], less than 100 nM.

For the compound `COc1cc(CNC(=O)[C@@]2(Cc3ccccc3)OC(=O)N([C@H](C)C3CCCCC3)C2=O)cc(OC)c1` [Compound 10, (5R)-5-Benzyl-3-[(1R)-1-cyclohexylethyl]-N-(3,5-dimethoxybenzyl)-2,4-dioxo-1,3-oxazolidine-5-carboxamide], the IC50 is less than 100 nM. Take `COc1cc(CNC(=O)[C@@]2(Cc3ccccc3)OC(=O)N([C@@H]3CCc4ccccc43)C2=O)cc(OC)c1` [Compound 11, (5R)-5-Benzyl-3-[(1R)-2,3-dihydro-1H-inden-1-yl]-N-(3,5-dimethoxybenzyl)-2,4-dioxo-1,3-oxazolidine-5-carboxamide]: the concentration for half-maximal inhibition (IC50) is less than 100 nM. For the compound `COc1cc(CNC(=O)[C@@]2(Cc3ccc(F)cc3)OC(=O)N([C@H](C)c3ccccc3)C2=O)cc(OC)c1` [Compound 3, (5R)-N-(3,5-Dimethoxybenzyl)-5-(4-fluorobenzyl)-2,4-dioxo-3-[(1R)-1-phenylethyl]-1,3-oxazolidine-5-carboxamide], the IC50 fell in the range of 100 to 500 nM.

Consider `C[C@H](c1ccc(F)cc1)N1C(=O)O[C@](Cc2ccccc2)(C(=O)Nc2ccc(F)cc2)C1=O` [Compound 15, (5R)-5-Benzyl-N-(4-fluorophenyl)-3-[(1R)-1-(4-fluorophenyl)ethyl]-2,4-dioxo-1,3-oxazolidine-5-carboxamide], for which the half-inhibitory concentration (IC50) lay within 100 to 500 nM. Regarding `C[C@H](c1ccc(F)cc1)N1C(=O)O[C@](Cc2ccccc2)(C(=O)NC(c2cccc(Cl)c2)C(F)(F)F)C1=O` (stereo partly drawn) [Compound 18, (5R)-5-Benzyl-N-[1-(3-chlorophenyl)-2,2,2-trifluoroethyl]-3-[(1R)-1-(4-fluorophenyl)ethyl]-2,4-dioxo-1,3-oxazolidine-5-carboxamide], the IC50 lay in the range of 100 to 500 nM. For the compound `C[C@H](c1ccc(F)cc1)N1C(=O)O[C@](Cc2ccccc2)(C(=O)Nc2cccc(F)c2)C1=O` [Compound 13, (5R)-5-Benzyl-N-(3-fluorophenyl)-3-[(1R)-1-(4-fluorophenyl)ethyl]-2,4-dioxo-1,3-oxazolidine-5-carboxamide], the half-inhibitory concentration (IC50) was 100 to 500 nM.

The term IC50 denotes the concentration at which inhibition is half-maximal.
